Data as given in patent US9051325B2, “Bicyclic [5,6] imidazo pyrimodone compounds for use in the treatment of diseases or conditions mediated by Lp-PLA2” (GlaxoSmithKline Intellectual Property Development Limited, priority 2013, dated 2015).
Where two headings read alike, the source gives them in different places.

Experiments:
[1] = biological target: T1, recombinant human Lp-PLA2 (Homo sapiens, UniProt Q13093); experiment: Recombinant human Lp-PLA2 assay (rhLp-PLA2, PED6 assay); format: biochemical
T1 sequence (Q13093 22-441): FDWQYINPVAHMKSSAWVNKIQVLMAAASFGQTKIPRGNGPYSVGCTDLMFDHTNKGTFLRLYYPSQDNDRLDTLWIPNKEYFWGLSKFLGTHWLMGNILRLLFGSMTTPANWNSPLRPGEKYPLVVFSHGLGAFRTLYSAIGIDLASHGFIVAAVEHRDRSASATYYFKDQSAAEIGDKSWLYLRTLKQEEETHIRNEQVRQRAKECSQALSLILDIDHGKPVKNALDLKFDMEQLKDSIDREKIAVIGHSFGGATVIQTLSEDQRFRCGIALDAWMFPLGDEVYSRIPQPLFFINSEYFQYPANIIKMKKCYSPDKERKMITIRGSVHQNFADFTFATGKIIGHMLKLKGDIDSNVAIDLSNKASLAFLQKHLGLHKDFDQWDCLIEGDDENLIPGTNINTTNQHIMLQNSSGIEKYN
Procedure, shortened: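 Compounds were preincubated 30 min with 4 nM […] rhLp-PLA2 in 50 mM HEPES pH 7.4, 150 mM NaCl, 1 mM CHAPS, then PED6 substrate […] was added for 20 min at room temperature in the dark. Fluorescence was read at ex 480/em 540, and pIC50 was fitted from 1:3 serial dilutions.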

[2] = biological target: T2, Lp-PLA2 in human plasma (Homo sapiens, UniProt Q13093); experiment: Lp-PLA2 human plasma assay (Thio-PAF assay); format: biochemical; settings: pooled human plasma; lower bounds; read-out: pIC50 values in the thio-PAF assay (converted)
T2 construct: from tissue; host or cells: pooled human plasma
T2 sequence (Q13093 22-441): T1 sequence (Q13093 22-441)
Procedure, shortened: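 Pooled human plasma preincubated 30 min with compounds, then given 2-thio-PAF substrate with CPM and NEM in 50 mM HEPES pH 7.4, 150 mM NaCl, 1 mM CHAPS. Reaction quenched after 2 min with TFA and read by fluorescence (ex 380/em 485) after 40 min at room temperature; pIC50 from curve fit.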

[3] = lower bounds, read-out: pIC50 values in the PED6 assay (converted)
[4] = read-out: rhLp-PLA2 (PED6 assay) (pIC50) (converted)

| IC50 [1, 3] [nM] | IC50 [2] [nM] | IC50 [1, 4] [nM] | SMILES |
| --- | --- | --- | --- |
| ≤ 1 | ≤ 100 |  | CC1(C)Cn2c(cc(OCc3cc(F)c(Oc4cnc(C(F)(F)F)nc4)c(F)c3)nc2=O)N1 [Example E100, 7-((3,5-difluoro-4-((2-(trifluoromethyl)pyrimidin-5-yl)oxy)benzyl)oxy)-2,2-dimethyl-2,3-dihydroimidazo[1,2-c]pyrimidin-5(1H)-one] |
| ≤ 1 | ≤ 100 |  | CC1(C)Cn2c(cc(OCc3ccc(Oc4cnc(C(F)(F)F)nc4)c(F)c3)nc2=O)N1 [Example E101, 7-((3-fluoro-4-((2-(trifluoromethyl)pyrimidin-5-yl)oxy)benzyl)oxy)-2,2-dimethyl-2,3-dihydroimidazo[1,2-c]pyrimidin-5(1H)-one] |
| ≤ 1 | ≤ 100 |  | CN1c2cc(OCc3ccc(Oc4ccc(C(F)(F)F)nc4)c(F)c3)nc(=O)n2CC1(C)C [Example E112, 7-((3-fluoro-4-((6-(trifluoromethyl)pyridin-3-yl)oxy)benzyl)oxy)-1,2,2-trimethyl-2,3-dihydroimidazo[1,2-c]pyrimidin-5(1H)-one] |
| ≤ 1 | ≤ 100 |  | CN1c2cc(OCc3cc(F)c(Oc4cncc(Cl)c4)c(F)c3)nc(=O)n2CC1(C)C [Example E113, 7-((4-((5-chloropyridin-3-yl)oxy)-3,5-difluorobenzyl)oxy)-1,2,2-trimethyl-2,3-dihydroimidazo[1,2-c]pyrimidin-5(1H)-one] |
| ≤ 1 | ≤ 100 |  | CC1(C)Cn2c(cc(OCc3cc(F)c(Oc4ccnc(F)c4)c(F)c3)nc2=O)N1 [Example E116, 7-((3,5-difluoro-4-((2-fluoropyridin-4-yl)oxy)benzyl)oxy)-2,2-dimethyl-2,3-dihydroimidazo[1,2-c]pyrimidin-5(1H)-one] |
| ≤ 1 | ≤ 100 |  | CC1(C)Cn2c(cc(OCc3cc(F)c(Oc4ccnc(C(F)(F)F)c4)c(F)c3)nc2=O)N1 [Example E127, 7-((3,5-difluoro-4-((2-(trifluoromethyl)pyridin-4-yl)oxy)benzyl)oxy)-2,2-dimethyl-2,3-dihydroimidazo[1,2-c]pyrimidin-5(1H)-one] |
| ≤ 1 | ≤ 100 |  | CC1(C)Cn2c(cc(OCc3cc(F)c(Oc4cncc(Cl)c4)c(F)c3)nc2=O)N1 [Example E128, 7-((4-((5-chloropyridin-3-yl)oxy)-3,5-difluorobenzyl)oxy)-2,2-dimethyl-2,3-dihydroimidazo[1,2-c]pyrimidin-5(1H)-one] |
| ≤ 1 | ≤ 100 |  | C[C@H]1Cn2c(cc(OCc3cc(F)c(Oc4ccnc(C(F)(F)F)c4)c(F)c3)nc2=O)N1 [Example E131, (S)-7-((3,5-difluoro-4-((2-(trifluoromethyl)pyridin-4-yl)oxy)benzyl)oxy)-2-methyl-2,3-dihydroimidazo[1,2-c]pyrimidin-5(1H)-one] |
| ≤ 1 | ≤ 100 |  | CC1(C)Cn2c(cc(OCc3cc(F)c(Oc4ccc(Cl)nc4)c(F)c3)nc2=O)N1 [Example E133, 7-((4-((6-chloropyridin-3-yl)oxy)-3,5-difluorobenzyl)oxy)-2,2-dimethyl-2,3-dihydroimidazo[1,2-c]pyrimidin-5(1H)-one] |
| ≤ 1 | ≤ 100 |  | CC1(C)Cn2c(cc(OCc3cc(F)c(Oc4ccc(F)nc4)c(F)c3)nc2=O)N1 [Example E134, 7-((3,5-difluoro-4-((6-fluoropyridin-3-yl)oxy)benzyl)oxy)-2,2-dimethyl-2,3-dihydroimidazo[1,2-c]pyrimidin-5(1H)-one] |

More lines, now with the values behind:

| SMILES | IC50 [1, 3] [nM] | IC50 [2] [nM] | IC50 [1, 4] [nM] |
| --- | --- | --- | --- |
| [2H]C([2H])(Oc1cc2n(c(=O)n1)CC(C)(C)N2CC)c1cccc(F)c1F [Example E102, 7-(dideutero(2,3-difluorobenzyl)oxy)-1-ethyl-2,2-dimethyl-2,3-dihydroimidazo[1,2-c]pyrimidin-5(1H)-one] | ≤ 10 | ≤ 100 |  |
| CN1c2cc(OCc3cccc(F)c3F)nc(=O)n2CC1(C)C [Example E103, 7-((2,3-difluorobenzyl)oxy)-1,2,2-trimethyl-2,3-dihydroimidazo[1,2-c]pyrimidin-5(1H)-one] | ≤ 10 | ≤ 100 |  |
| [2H]C([2H])([2H])N1c2cc(OCc3cccc(F)c3F)nc(=O)n2CC1(C)C [Example E104, 7-((2,3-difluorobenzyl)oxy)-1-trideuteromethyl-2,2-dimethyl-2,3-dihydroimidazo[1,2-c]pyrimidin-5(1H)-one] | ≤ 10 | ≤ 100 |  |
| [2H]C([2H])(Oc1cc2n(c(=O)n1)CC(C)(C)N2C(C)C)c1cccc(F)c1F [Example E105, 7-(dideutero(2,3-difluorobenzyl)oxy)-1-isopropyl-2,2-dimethyl-2,3-dihydroimidazo-[1,2-c]pyrimidin-5(1H)-one] | ≤ 1 | ≤ 100 | 0.631 |
| C[C@@H]1Cn2c(cc(OCc3ccc(F)c(F)c3)nc2=O)N1C [Example E106, (R)-7-((3,4-difluorobenzyl)oxy)-1,2-dimethyl-2,3-dihydroimidazo[1,2-c]pyrimidin-5(1H)-one] | ≤ 10 | ≤ 100 |  |
| C[C@@H]1Cn2c(cc(OCc3ccc(Oc4ccc(C(F)(F)F)nc4)c(F)c3)nc2=O)N1C [Example E107, (R)-7-((3-fluoro-4-((6-(trifluoromethyl)pyridin-3-yl)oxy)benzyl)oxy)-1,2-dimethyl-2,3-dihydroimidazo[1,2-c]pyrimidin-5(1H)-one] | ≤ 1 | ≤ 100 |  |
| C[C@H]1Cn2c(cc(OCc3cc(F)c(F)c(F)c3)nc2=O)N1C [Example E108, (S)-1,2-dimethyl-7-((3,4,5-trifluorobenzyl)oxy)-2,3-dihydroimidazo[1,2-c]pyrimidin-5(1H)-one] | ≤ 10 | ≤ 100 |  |
| CN1c2cc(OCc3cc(F)c(F)c(F)c3)nc(=O)n2CC1(C)C [Example E110, 1,2,2-trimethyl-7-((3,4,5-trifluorobenzyl)oxy)-2,3-dihydroimidazo[1,2-c]pyrimidin-5(1H)-one] | ≤ 10 | ≤ 100 |  |
| CN1c2cc(OCc3cc(F)cc(F)c3)nc(=O)n2CC1(C)C [Example E114, 7-((3,5-difluorobenzyl)oxy)-1,2,2-trimethyl-2,3-dihydroimidazo[1,2-c]pyrimidin-5(1H)-one] | ≤ 1 | ≤ 100 | 0.794 |
| CC1Cn2c(cc(OCc3ccc(Oc4cc(F)cc(C(F)(F)F)c4)c(F)c3)nc2=O)N1C (centres unmarked) [Example E119, 7-((3-fluoro-4-(3-fluoro-5-(trifluoromethyl)phenoxy)benzyl)oxy)-1,2-dimethyl-2,3-dihydroimidazo[1,2-c]pyrimidin-5(1H)-one] | ≤ 1 | ≤ 100 |  |
| CC1Cn2c(cc(OCc3ccc(F)c(C#N)c3)nc2=O)N1C (centres unmarked) [Example E121, 5-(((1,2-dimethyl-5-oxo-1,2,3,5-tetrahydroimidazo[1,2-c]pyrimidin-7-yl)oxy)methyl)-2-fluorobenzonitrile] | ≤ 10 | ≤ 100 |  |
| CN1c2cc(OCc3ccc(F)c(F)c3)nc(=O)n2CC1(C)C [Example E122, 7-((3,4-difluorobenzyl)oxy)-1,2,2-trimethyl-2-dihydroimidazo[1,2-c]pyrimidin-5(1H)-one] | ≤ 1 | ≤ 100 |  |
| C[C@@H]1Cn2c(cc(OCc3ccc(Oc4cncc(C(F)(F)F)c4)c(C#N)c3)nc2=O)N1C [Example E123, (R)-5-(((1,2-dimethyl-5-oxo-1,2,3,5-tetrahydroimidazo[1,2-c]pyrimidin-7-yl)oxy)methyl)-2-((5-(trifluoromethyl)pyridin-3-yl)oxy)benzonitrile] | ≤ 1 | ≤ 100 |  |
| CN1c2cc(OCc3cccc(C#N)c3)nc(=O)n2CC1(C)C [Example E124, 3-(((1,2,2-trimethyl-5-oxo-1,2,3,5-tetrahydroimidazo[1,2-c]pyrimidin-7-yl)oxy)methyl)benzonitrile] | ≤ 1 | ≤ 100 |  |
| CCN1c2cc(OCc3cc(F)cc(F)c3)nc(=O)n2CC1(C)C [Example E129, 7-((3,5-difluorobenzyl)oxy)-1-ethyl-2,2-dimethyl-2,3-dihydroimidazo[1,2-c]pyrimidin-5(1H)-one] | ≤ 10 | ≤ 100 |  |
| [2H]C1([2H])n2c(cc(OCc3cccc(F)c3F)nc2=O)N(C)C1(C)C [Example E136, 7-((2,3-difluorobenzyl)oxy)-1,2,2-trimethyl-3,3-dideutero-2,3-dihydroimidazo[1,2-c]pyrimidin-5(1H)-one] | ≤ 10 | ≤ 100 |  |
| [2H]C1([2H])n2c(cc(OCc3cc(F)cc(F)c3)nc2=O)N(C)C1(C)C [Example E137, 7-((3,5-difluorobenzyl)oxy)-1,2,2-trimethyl-3,3-dideutero-2,3-dihydroimidazo[1,2-c]pyrimidin-5(1H)-one] | ≤ 10 | ≤ 100 |  |
